Data reported in patent publication US12502362B2, “Inhibitors of nucleotidyltransferase superfamily enzymes as antibiotics” (priority 2017, dated 2025).
≈ marks a conversion by molar mass, not a printed value.

Columns and labels:
[1] = tested on: S. aureus (ATCC 29213); assay: MIC80 on S. aureus; format: cell-based, Staphylococcus aureus; details: Staphylococcus aureus, ATCC 29213 / MSSA, read-out: MIC80 S. aureus, S. aureus ATCC 29213 (MSSA); ≥80% growth inhibition
[2] = tested on: Acinetobacter baumannii (Abl, from a patient); assay: microbe, parasite or virus in culture; format: cell-based
[3] = tested on: E. coli (ATCC 35218); assay: microbe, parasite or virus in culture; format: cell-based; details: for MIC80: Escherichia coli, ATCC35218, read-out: MIC80 E. coli, E. coli ATCC 35218; for MIC80 E. coli: E. coli ATCC 35218
[4] = Cytotoxicity assay (CC50), MTS; format: cell-based, human; details: human, HepG2-derived hepatoblastoma cell line (HEPDES19), HEPDES19 cells
Method: (§1) To further characterize the compounds, the minimal inhibitory concentration (MIC80) were determined for selected compounds. MIC80 is defined as the compound concentration at which ≥80% bacterial growth is inhibited compare to untreated controls. Meanwhile, for the selected compounds, cytotoxicity assays (CC50) were performed on a HepG2-derived hepatoblastoma cell line (HEPDES19). […] For CC50 evaluation, soluble tetrazolium dye (MTS) was used to measure mitochondrial toxicity in a human hepatoblastoma cell line (18). The bacteria (E. coli, S. saprophyticus and A. baumannii) used in MIC80 measurements were the same as that in the primary screening, but for Staphylococcus, S. aureus is used primarily because it is a common pathogen in Staphylococcaeae family, while S. saprophyticus is part of the normal human flora.

[5] = tested on: HepG2-derived hepatoblastoma cell line (HEPDES19); assay: Cytotoxicity assay (CC50), MTS; format: cell-based, human; details: HEPDES19 cells
Method: as §1

[6] = tested on: S. aureus and/or S. saprophyticus; assay: MIC80 on S. aureus and/or S. saprophyticus; format: cell-based; details: read-out: MIC80 against S. aureus and/or S. saprophyticus
Method: as §1, with “(HEPDES19). […] For the MIC80 measurements, a 1.5 fold dilution series of the compounds was prepared in Mueller-Hinton II broth.” for “(HEPDES19).”, “flora. S. aureus (ATCC 29213) is methicillin-sensitive Staphylococcus aureus (MSSA) strain and it was used as a model strain to measure the MIC80.” for “flora.”

[7] = tested on: S. aureus ATCC strains and methicillin-resistant Staphylococcus aureus (MRSA); assay: MIC80 on S. aureus ATCC strains and MRSA; format: cell-based
Method: as §1

[8] = tested on: Staphylococcus epidermidis; assay: MIC80 on S. epidermidis; format: cell-based
Method: as §1, with “(HEPDES19). […] For the MIC80 measurements, a 1.5 fold dilution series of the compounds was prepared in Mueller-Hinton II broth.” for “(HEPDES19).”, “flora. S. aureus (ATCC 29213) is methicillin-sensitive Staphylococcus aureus (MSSA) strain and it was used as a model strain to measure the MIC80.” for “flora.”
(§2) It was also tested whether compounds #63 and #285 can inhibit other coagulase-negative Staphylococcus (CNS) including S. epidermidis, S. hominis, etc. […] .

[9] = tested on: Staphylococcus hominis; assay: MIC80 on S. hominis; format: cell-based
Method: as §1, with “(HEPDES19). […] For the MIC80 measurements, a 1.5 fold dilution series of the compounds was prepared in Mueller-Hinton II broth.” for “(HEPDES19).”, “flora. S. aureus (ATCC 29213) is methicillin-sensitive Staphylococcus aureus (MSSA) strain and it was used as a model strain to measure the MIC80.” for “flora.”
as §2

[10] = tested on: Coagulase negative Staphylococcus; assay: MIC80 on coagulase negative Staphylococcus; format: cell-based
Method: as §1, with “(HEPDES19). […] For the MIC80 measurements, a 1.5 fold dilution series of the compounds was prepared in Mueller-Hinton II broth.” for “(HEPDES19).”, “flora. S. aureus (ATCC 29213) is methicillin-sensitive Staphylococcus aureus (MSSA) strain and it was used as a model strain to measure the MIC80.” for “flora.”
as §2

[11] = tested on: Citrobacter koseri; assay: microbe, parasite or virus in culture; format: cell-based
Method: as §1
(§3) All these MDR-bacteria are at least resistant to two classes of the antibiotics among five groups and/or specific antibiotics including quinolones/fluorquinolones, carbapenems, cephalosporins, aminoglycosides and piperacillin-tazobactam.

[12] = tested on: Enterobacter cloacae complex; assay: microbe, parasite or virus in culture; format: cell-based
Method: as §1, §3

[13] = tested on: Klebsiella pneumoniae; assay: microbe, parasite or virus in culture; format: cell-based
Method: as §1, §3

[14] = tested on: MDR E. coli; assay: microbe, parasite or virus in culture; format: cell-based
Method: as §1, §3

[15] = tested on: MDR Enterobacteriaceae; assay: organism not typed; format: cell-based
Method: as §1, §3

[16] = tested on: Morganella morganii; assay: microbe, parasite or virus in culture; format: cell-based
Method: as §1, §3

## COc1ccccc1C(=O)Oc1cccccc1=O [Compound 285]
[1]
  MIC80: 10.3 µM (≈ 2.64 µg/mL)
[2]; Acinetobacter baumannii, read-out: MIC80 A. baumannii, A. baumannii Ab1, MDR patient isolate
  MIC80: 44.4 µM (≈ 11.4 µg/mL)
[3]
  MIC80: 100 µM (≈ 25.6 µg/mL)
[4]
  CC50: > 50 µM
[5]
  CC50: ≥ 100 µM
[6]
  MIC80: < 20 µM
[7]; ATCC 25923 / MRSA, S. aureus ATCC 25923
  MIC80: 8.8 µM (≈ 2.26 µg/mL)
[7]; ATCC 29213 / MRSA, S. aureus ATCC 29213 (Table 3)
  MIC80: 8.8 µM (≈ 2.26 µg/mL)
[7]; BAA-976 / MRSA, S. aureus ATCC BAA 976
  MIC80: 8.8 µM (≈ 2.26 µg/mL)
[7]; BAA-977 / MRSA, S. aureus ATCC BAA 977
  MIC80: 8.8 µM (≈ 2.26 µg/mL)
[7]; MRSA, Sa1 (MRSA)
  MIC80: 8.8 µM (≈ 2.26 µg/mL)
[7]; MRSA, Sa2 (MRSA)
  MIC80: 8.8 µM (≈ 2.26 µg/mL)
[7]; MRSA, Sa3 (MRSA)
  MIC80: 8.8 µM (≈ 2.26 µg/mL)
[7]; MRSA, Sa5 (MRSA)
  MIC80: 8.8 µM (≈ 2.26 µg/mL)
[7]; MRSA, Sa6 (MRSA)
  MIC80: 8.8 µM (≈ 2.26 µg/mL)
[7]; MRSA, Sa7 (MRSA)
  MIC80: 8.8 µM (≈ 2.26 µg/mL)
[7]; MRSA, Sa8 (MRSA)
  MIC80: 8.8 µM (≈ 2.26 µg/mL)
[7]; MRSA, Sa9 (MRSA)
  MIC80: 8.8 µM (≈ 2.26 µg/mL)
[7]; MRSA, Sa10 (MRSA)
  MIC80: 8.8 µM (≈ 2.26 µg/mL)
[7]; MRSA, Sa11 (MRSA)
  MIC80: 8.8 µM (≈ 2.26 µg/mL)
[7]; MRSA, Sa12 (MRSA)
  MIC80: 8.8 µM (≈ 2.26 µg/mL)
[7]; MRSA, Sa14 (MRSA)
  MIC80: 8.8 µM (≈ 2.26 µg/mL)
[7]; MRSA, Sa15 (MRSA)
  MIC80: 5.9 µM (≈ 1.51 µg/mL)
[7]; MRSA, Sa16 (MRSA)
  MIC80: 8.8 µM (≈ 2.26 µg/mL)
[7]; MRSA, Sa17 (MRSA)
  MIC80: 8.8 µM (≈ 2.26 µg/mL)
[7]; MRSA, Sa18 (MRSA)
  MIC80: 8.8 µM (≈ 2.26 µg/mL)
[7]; MRSA, Sa19 (MRSA)
  MIC80: 8.8 µM (≈ 2.26 µg/mL)
[7]; MRSA, Sa20 (MRSA)
  MIC80: 13.2 µM (≈ 3.38 µg/mL)
[7]; MRSA, Sa21 (MRSA)
  MIC80: 5.9 µM (≈ 1.51 µg/mL)
[7]; MRSA, Sa22 (MRSA)
  MIC80: 5.9 µM (≈ 1.51 µg/mL)
[7]; MRSA, Sa23 (MRSA)
  MIC80: 8.8 µM (≈ 2.26 µg/mL)
[8]; Se1 (Staphylococcus epidermidis)
  MIC80: 8.8 µM (≈ 2.26 µg/mL)
[8]; Se2 (Staphylococcus epidermidis)
  MIC80: 6.6 µM (≈ 1.69 µg/mL)
[8]; Se3 (Staphylococcus epidermidis)
  MIC80: 6.6 µM (≈ 1.69 µg/mL)
[8]; Se4 (Staphylococcus epidermidis)
  MIC80: 9.9 µM (≈ 2.54 µg/mL)
[8]; Se5 (Staphylococcus epidermidis)
  MIC80: 9.9 µM (≈ 2.54 µg/mL)
[9]; Sh1 (Staphylococcus hominis)
  MIC80: 9.9 µM (≈ 2.54 µg/mL)
[9]; Sh2 (Staphylococcus hominis)
  MIC80: 9.9 µM (≈ 2.54 µg/mL)
[9]; Sh3 (Staphylococcus hominis)
  MIC80: 6.6 µM (≈ 1.69 µg/mL)
[10]; CNS1 (Coagulase negative Staphylococcus)
  MIC80: 9.9 µM (≈ 2.54 µg/mL)
[10]; CNS2 (Coagulase negative Staphylococcus)
  MIC80: 6.6 µM (≈ 1.69 µg/mL)

## CCn1cc(C(=O)O)c(=O)c2cnc(N3CCN(C(=O)NC)CC3)nc21 [Compound 322]
[2]; A. baumannii Ab1, MDR patient isolate
  MIC80 A. baumannii: >100 µM
[3]
  inhibition of E. coli (in words): only modestly inhibited
  MIC80 E. coli: 29.6 µM (≈ 10.7 µg/mL)
[5]
  CC50: ≥ 100 µM
[11]; Ck1 (Citrobacter koseri)
  MIC80: >100 µM
[12]; Ecc1 (Enterobacter cloacae complex)
  MIC80: 44.4 µM (≈ 16 µg/mL)
[12]; one Enterobacter cloacae complex strain
  MIC80: 66.7 µM (≈ 24 µg/mL)
[13]; Kp1 (Klebsiella pneumonia)
  MIC80: >100 µM
[13]; Kp6 (Klebsiella pneumonia)
  MIC80: >100 µM
[14]; Ec1 (MDR E. coli)
  MIC80: >100 µM
[14]; Ec2 (MDR E. coli)
  MIC80: 66.7 µM (≈ 24 µg/mL)
[14]; Ec3 (MDR E. coli)
  MIC80: >100 µM
[14]; Ec4 (MDR E. coli)
  MIC80: >100 µM
[14]; Ec5 (MDR E. coli)
  MIC80: >100 µM
[14]; one MDR E. coli
  MIC80: 44.4 µM (≈ 16 µg/mL)
[15]; except one MDR E. coli and one Enterobacter cloacae complex strain
  inhibition of MDR Enterobacteriaceae (in words): No obvious inhibition
[16]; Mm1 (Morganella morganii)
  MIC80: >100 µM

## O=C(Sc1cccccc1=O)c1ccccc1 [Compound 364]
[1]
  MIC80: 13.2 µM (≈ 3.2 µg/mL)
[3]
  MIC80 E. coli: 19.8 µM (≈ 4.8 µg/mL)
  MIC80: < 30 µM
[4]
  CC50: > 50 µM
[5]
  CC50: 67 µM
[6]
  MIC80: < 20 µM
[11]; Citrobacter koseri
  MIC80: 33.3 µM (≈ 8.07 µg/mL)
[12]; Enterobacter cloacae
  MIC80: 33.3 µM (≈ 8.07 µg/mL)
[13]; Klebsiella pneumoniae, Kp1 (Klebsiella pneumonia)
  MIC80: > 33.3 µM
[13]; Klebsiella pneumoniae, Kp6 (Klebsiella pneumonia)
  MIC80: > 33.3 µM
[14]; Escherichia coli, Ec1 (MDR E. coli)
  MIC80: 33.3 µM (≈ 8.07 µg/mL)
[14]; Escherichia coli, Ec2 (MDR E. coli)
  MIC80: 14.8 µM (≈ 3.59 µg/mL)
[14]; Escherichia coli, Ec3 (MDR E. coli)
  MIC80: 22.2 µM (≈ 5.38 µg/mL)
[14]; Escherichia coli, Ec4 (MDR E. coli)
  MIC80: 33.3 µM (≈ 8.07 µg/mL)
[15]; read-out: MIC80 on MDR Enterobacteriaceae
  MIC80: ≤ 20 µM
[16]; Morganella morganii
  MIC80: > 33.3 µM
